ChEMBL document CHEMBL5154662, “Discovery of BP3 as an efficacious proteolysis targeting chimera (PROTAC) degrader of HSP90 for treating breast cancer” (Eur J Med Chem, 2022)
Blank lines part the entries; values can stand above or below the compound they belong to. Activity calls are given as the source filed them. No cut-off for these calls is given here.

Experiments:
MCF7 [1] = test: Antiproliferative activity against human MCF-7 cells assessed as inhibition of cell proliferation incubated for 72 hrs by MTT assay; assay type: functional, cell-based; conditions: MCF7, 72 h
MDA-MB-231 = test: Antiproliferative activity against human MDA-MB-231 cells assessed as inhibition of cell proliferation incubated for 72 hrs by MTT assay; assay type: functional, cell-based; conditions: MDA-MB-231, 72 h
[2] = molecular target: T1, Protein cereblon/Heat shock protein HSP 90-alpha/Heat shock protein HSP 90-beta (Homo sapiens, UniProt P07900+P08238+Q96SW2); test: Protac activity at CRBN/HSP90 in human MCF7 cells assessed as maximum degradation of HSP90 measured after 6 hrs by western blot analysis relative to control; assay type: cell-based
[3] = molecular target: T1, Protein cereblon/Heat shock protein HSP 90-alpha/Heat shock protein HSP 90-beta; test: Protac activity at CRBN/HSP90 in human MCF7 cells assessed as reduction in HSP90 protein expression level at 2 uM measured after 6 hrs by western blot analysis; assay type: cell-based
Heat shock protein HSP90 = Heat shock protein HSP90 (Homo sapiens, UniProt P07900+P08238); test: Binding affinity to HSP90 (unknown origin) upto 250 uM by BLI assay; assay type: protein assay
MCF7 [4] = test: Anticancer activity against human MCF7 cells assessed as inhibition of colony formation at 2 to 10 uM measured after 48 hrs by crystal violet staining based assay; assay type: functional, cell-based; conditions: dose 2-10 µM, DDE = dose-dependent effect
4T1 [5] = test: Anticancer activity against mouse 4T1 cells assessed as inhibition of cell proliferation measured after 72 hrs by MTT assay; assay type: functional, cell-based; conditions: 4T1, 72 h
MDA-MB-468 = test: Anticancer activity against human MDA-MB-468 cells assessed as inhibition of cell proliferation measured after 72 hrs by MTT assay; assay type: functional, cell-based; conditions: MDA-MB-468, 72 h
[6] = Tmax in rat at 15 mg/kg, ip measured after 8 hrs; assay type: ADME, organism-based; conditions: in vivo
[7] = Cmax in rat at 15 mg/kg, ip measured after 8 hrs; assay type: ADME, organism-based; set-up: time 8 hrs, dose 15 mg/kg, route ip; conditions: in vivo
[8] = AUC in rat at 15 mg/kg, ip measured after 8 hrs; assay type: ADME, organism-based; set-up: dose 15 mg/kg, time 8 hrs, route ip; conditions: in vivo
[9] = AUCinfinity in rat at 15 mg/kg, ip measured after 8 hrs; assay type: ADME, organism-based; set-up: dose 15 mg/kg, time 8 hrs, route ip; conditions: in vivo
[10] = Half life in rat at 15 mg/kg, ip measured after 8 hrs; assay type: ADME, organism-based; conditions: in vivo
4T1 [11] = test: Antitumor activity against female BALB/c mouse xenografted with 4T1 cells assessed as tumor growth inhibition at 40 mg/kg, ip administered daily for 12 days relative to control; assay type: functional; conditions: 4T1, 288 h, time 12 day, read-out: TGI
[12] = Toxicity in BALB/c mouse assessed as body weight loss at 40 mg/kg, ip administered daily for 12 days measured once every 3 days; assay type: organism-based; conditions: in vivo, 288 h, time 12 day
[13] = molecular target: T1, Protein cereblon/Heat shock protein HSP 90-alpha/Heat shock protein HSP 90-beta; test: Protac activity at CRBN/HSP90 in human MCF7 cells assessed as reduction in HSP90 mRNA expression level at 2 uM followed by cycloheximide addition measured upto 12 hrs by qRT-PCR analysis; assay type: cell-based
[14] = molecular target: T1, Protein cereblon/Heat shock protein HSP 90-alpha/Heat shock protein HSP 90-beta; test: Protac activity at CRBN/HSP90 in human MCF7 cells assessed as HSP90 degradation measured after 6 hrs by western blot analysis; assay type: cell-based
[15] = molecular target: T1, Protein cereblon/Heat shock protein HSP 90-alpha/Heat shock protein HSP 90-beta; test: Protac activity at CRBN/HSP90 in human MCF7 cells assessed as reduction in AKT protein expression level at 2 uM measured after 6 hrs by western blot analysis; assay type: cell-based
[16] = molecular target: T1, Protein cereblon/Heat shock protein HSP 90-alpha/Heat shock protein HSP 90-beta; test: Protac activity at CRBN/HSP90 in human MCF7 cells assessed as reduction in p53 protein expression level at 2 uM measured after 6 hrs by western blot analysis; assay type: cell-based
[17] = molecular target: Heat shock protein HSP 90-alpha (Homo sapiens) (UniProt P07900); test: Degradation of HSP90alpha in human MCF7 cells at 2 uM measured after 6 hrs by western blot analysis; assay type: cell-based
[18] = Toxicity in BALB/c mouse assessed as death at 40 mg/kg, ip administered daily for 12 days; assay type: organism-based; conditions: in vivo, 288 h, time 12 day
4T1 [19] = test: Antitumor activity against female BALB/c mouse xenografted with 4T1 cells assessed as reduction on tumor weight at 40 mg/kg, ip administered daily for 12 days; assay type: functional, organism-based; conditions: time 12.0 day
4T1 [20] = test: Antitumor activity against female BALB/c mouse xenografted with 4T1 cells assessed as reduction on tumor formation at 40 mg/kg, ip administered daily for 12 days; assay type: functional, organism-based; conditions: time 12.0 day
[21] = molecular target: T1, Protein cereblon/Heat shock protein HSP 90-alpha/Heat shock protein HSP 90-beta; test: Protac activity at CRBN/HSP90 in human MCF7 cells assessed as reduction in HSP90 protein expression level at 2 uM followed by cycloheximide addition measured upto 12 hrs by western blot analysis; assay type: cell-based

T1 sequence (P08238 whole entry, other chains not shown): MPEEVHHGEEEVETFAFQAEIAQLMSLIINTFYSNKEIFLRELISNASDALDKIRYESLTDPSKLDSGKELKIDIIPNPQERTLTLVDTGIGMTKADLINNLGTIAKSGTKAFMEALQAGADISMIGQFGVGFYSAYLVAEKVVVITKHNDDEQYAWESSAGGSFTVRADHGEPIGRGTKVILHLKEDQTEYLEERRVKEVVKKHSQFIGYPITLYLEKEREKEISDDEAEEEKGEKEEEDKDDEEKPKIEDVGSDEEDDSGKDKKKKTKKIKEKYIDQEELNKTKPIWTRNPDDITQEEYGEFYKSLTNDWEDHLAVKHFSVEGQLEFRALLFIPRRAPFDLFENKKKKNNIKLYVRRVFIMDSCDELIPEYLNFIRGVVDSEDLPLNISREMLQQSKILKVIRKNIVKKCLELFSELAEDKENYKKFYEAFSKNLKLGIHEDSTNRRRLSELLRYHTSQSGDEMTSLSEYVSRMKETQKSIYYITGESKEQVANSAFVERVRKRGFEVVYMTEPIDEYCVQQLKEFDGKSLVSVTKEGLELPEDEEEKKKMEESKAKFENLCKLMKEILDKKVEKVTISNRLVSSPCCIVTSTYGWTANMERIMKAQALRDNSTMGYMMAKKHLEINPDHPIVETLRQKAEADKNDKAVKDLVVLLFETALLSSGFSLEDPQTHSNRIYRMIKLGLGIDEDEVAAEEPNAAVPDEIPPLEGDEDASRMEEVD
T1 sequence (Q96SW2 whole entry, other chains not shown): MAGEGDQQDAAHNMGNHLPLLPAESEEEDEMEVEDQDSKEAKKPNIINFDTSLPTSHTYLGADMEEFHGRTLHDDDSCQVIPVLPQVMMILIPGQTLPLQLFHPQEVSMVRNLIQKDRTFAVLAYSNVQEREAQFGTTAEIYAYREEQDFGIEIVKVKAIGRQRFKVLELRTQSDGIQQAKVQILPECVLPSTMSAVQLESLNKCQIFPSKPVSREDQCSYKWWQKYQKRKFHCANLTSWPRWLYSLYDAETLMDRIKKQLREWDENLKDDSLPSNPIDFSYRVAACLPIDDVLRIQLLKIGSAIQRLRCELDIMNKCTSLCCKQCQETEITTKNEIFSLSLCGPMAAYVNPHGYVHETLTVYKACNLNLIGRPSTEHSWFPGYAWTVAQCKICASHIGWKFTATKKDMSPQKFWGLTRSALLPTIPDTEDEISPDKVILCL

- IC50 (MCF7 [1]): 5.63 µM
- IC50 (MDA-MB-231): 3.87 µM
Compound: COc1c(C)cnc(Cn2cc(C#CCOCCOCCOCCOCCOCCNc3cccc4c3C(=O)N(C3CCC(=O)NC3=O)C4=O)c3c(Cl)nc(N)nc32)c1C (stereo unspecified)

- IC50 (MCF7 [1]): 0.19 µM
- IC50 (MDA-MB-231): 0.44 µM
Compound: COc1c(C)cnc(Cn2cc(C#CCOCCNc3cccc4c3C(=O)N(C3CCC(=O)NC3=O)C4=O)c3c(Cl)nc(N)nc32)c1C (stereo unspecified)

- IC50 (MCF7 [1]): 20.9 µM
- IC50 (MDA-MB-231): > 100 µM
Compound: COc1cc(C(=O)NCC#Cc2cn(Cc3ncc(C)c(OC)c3C)c3nc(N)nc(Cl)c23)ccc1NC(=O)[C@@H]1N[C@@H](CC(C)(C)C)[C@](C#N)(c2ccc(Cl)cc2F)[C@H]1c1cccc(Cl)c1F

- IC50 (MCF7 [1]): > 100 µM
- IC50 (MDA-MB-231): > 100 µM
Compound: COc1cc(C(=O)NCCOCCOCCOCCOCCOCCOCC#Cc2cn(Cc3ncc(C)c(OC)c3C)c3nc(N)nc(Cl)c23)ccc1NC(=O)[C@@H]1N[C@@H](CC(C)(C)C)[C@](C#N)(c2ccc(Cl)cc2F)[C@H]1c1cccc(Cl)c1F

- IC50 (MCF7 [1]): 2.46 µM
- IC50 (MDA-MB-231): 7.77 µM
Compound: COc1c(C)cnc(Cn2cc(C#CCCNc3cccc4c3C(=O)N(C3CCC(=O)N(C)C3=O)C4=O)c3c(Cl)nc(N)nc32)c1C (stereo unspecified)

- IC50 (MCF7 [1]): 32.9 µM
- IC50 (MDA-MB-231): 72.1 µM
Compound: COc1cc(C(=O)NCCOCCOCC#Cc2cn(Cc3ncc(C)c(OC)c3C)c3nc(N)nc(Cl)c23)ccc1NC(=O)[C@@H]1N[C@@H](CC(C)(C)C)[C@](C#N)(c2ccc(Cl)cc2F)[C@H]1c1cccc(Cl)c1F

- IC50 (MCF7 [1]): 37.9 µM
- IC50 (MDA-MB-231): > 100 µM
Compound: COc1cc(C(=O)NCCC#Cc2cn(Cc3ncc(C)c(OC)c3C)c3nc(N)nc(Cl)c23)ccc1NC(=O)[C@@H]1N[C@@H](CC(C)(C)C)[C@](C#N)(c2ccc(Cl)cc2F)[C@H]1c1cccc(Cl)c1F

- IC50 (MCF7 [1]): 1.45 µM
- IC50 (MDA-MB-231): 5.2 µM
Compound: COc1c(C)cnc(Cn2cc(C#CCCCNc3cccc4c3C(=O)N(C3CCC(=O)NC3=O)C4=O)c3c(Cl)nc(N)nc32)c1C (stereo unspecified)

- IC50 (MCF7 [1]): 2.24 µM
- IC50 (MDA-MB-231): 4.85 µM
Compound: COc1c(C)cnc(Cn2cc(C#CCOCCOCCOCCNc3cccc4c3C(=O)N(C3CCC(=O)NC3=O)C4=O)c3c(Cl)nc(N)nc32)c1C (stereo unspecified)

Compound: COc1c(C)cnc(Cn2cc(C#CCCNc3cccc4c3C(=O)N(C3CCC(=O)NC3=O)C4=O)c3c(Cl)nc(N)nc32)c1C (stereo unspecified)
- IC50 (MCF7 [1]): 0.63 µM
- IC50 (MDA-MB-231): 3.53 µM
- Emax [2]: 83.4%
- Activity [3]: Active
- Kd (Heat shock protein HSP90): 1.18 10^-4M
- Activity (MCF7 [4]): Dde
- IC50 (4T1 [5]): 0.61 µM
- IC50 (MDA-MB-468): 2.95 µM
- Tmax [6]: 1.85 h
- Cmax [7]: 260 ng/mL
- AUC [8]: 1360 ng·h/mL
- AUC [9]: 2080 ng·h/mL
- half-life [10]: 4.5 h
- inhibition in vivo at 40 mg/kg (4T1 [11]): 76.4%
- Activity [12]: 19.7%
- Activity [13]: Active
- DC50 [14]: 0.99 µM
- Activity [15]: Active
- Activity [16]: Active
- Activity [17]: Active
- Activity [18]: Non-Toxic
- Activity (4T1 [19]): Active
- Activity (4T1 [20]): Active
- Activity [21]: Active

- IC50 (MCF7 [1]): > 100 µM
- IC50 (MDA-MB-231): > 100 µM
Compound: COc1cc(C(=O)NCCOCCOCCOCCOCC#Cc2cn(Cc3ncc(C)c(OC)c3C)c3nc(N)nc(Cl)c23)ccc1NC(=O)[C@@H]1N[C@@H](CC(C)(C)C)[C@](C#N)(c2ccc(Cl)cc2F)[C@H]1c1cccc(Cl)c1F

- IC50 (MCF7 [1]): 0.98 µM
- IC50 (MDA-MB-231): 0.76 µM
Compound: COc1c(C)cnc(Cn2cc(C#CCOCCOCCNc3cccc4c3C(=O)N(C3CCC(=O)NC3=O)C4=O)c3c(Cl)nc(N)nc32)c1C (stereo unspecified)
